From patent publication US20220306623A1, “PYRIDYL OR PYRIMIDYL MTOR KINASE INHIBITORS” (GLAXOSMITHKLINE INTELLECTUAL PROPERTY DEVELOPMENT LIMITED, priority 2019, published 2022)

Legend:
[1] = test system: type I collagen deposition in primary lung fibroblasts derived from human tissue; assay: High throughput type I collagen deposition (scar-in-a-jar) high content screening assay; type: cell-based; conditions: Primary lung fibroblast, 72 h, human pulmonary fibroblasts, 384-well, TGF-β 1 ng/ml 72 h, total collagen area, read-out: mean pIC50, high throughput type I collagen deposition (scar-in-a-jar) (converted)
Protocol: Highthroughput, cellular type I collagen deposition was measured by adapting a published method; scar-in-a-jar (Chen et al., 2009) to primary lung fibroblasts derived from human tissue and combining with high content analysis to permit fluorescent quantification of collagen deposited in the extracellular matrix (ECM). The human biological samples were sourced ethically and their research use was in accordance with the terms of the informed consents.
Test compounds were dissolved in 100% DMSO to give 10 mM (stocks) and further diluted to give half log dilutions to generate an 11 point concentration response curve. 1 ul was transferred to 384-well plates (Greiner Group, Kremsmunster, Austria, Catalogue No Greine 781280r).
Human pulmonary fibroblasts were maintained in DMEM media (Gibco, Catalogue No 21969) supplemented with 4 mM L-glutamine (Gibco Catalogue No 25030-024) and 10% heat inactivated FBS (Gibco, Catalogue No 10099-141) at 37° C. in 10% CO2. Cells were harvested and resuspended at 4×10^6 cells/ml in a T175 cell culture flask (BD Falcom, Catalogue No: 353112) containing 50 mL of culture media. After 4 days 37° C. in 10% CO2, cells were harvested and seeded at 4000 cells per well ([…]) into 384-well plates (BD Falcon, Catalogue No 353962Greiner) in assay media (0.4% heat inactivated FBS, 4 mM L-glutamine). Plates were sealed with breathable seals (Sigma, Catalogue No. BEM-1). Assay plates were incubated for 72 h at 37° C. in 10% CO2.
Assay media was supplemented with 112.5 mg/ml Ficoll 70 (Sigma, Catalogue No F2878), 75 mg/ml Ficoll 400 (Sigma, Catalogue No F4375) and 50 µg/ml ascorbic acid (Sigma, Catalogue No A8960). 30 μL assay media were added to 1 l compound ([…] compound concentration in 1% DMSO). Diluted compounds (10 μL) were transferred to plates containing cells and incubated for 3 h at 37° C. in 10% CO2. Transforming growth factor (TGF)-β (R&D systems, Catalogue No 100-B/CF) was reconstituted to give 10 µg/mL (stock) and further diluted in assay media containing Ficoll and ascorbic acid (1 in 3333). TGF-β was added to cell plates (1 ng/ml final) and cells incubated for 72 h at 37° C. in 10% CO2.
Media was aspirated from cells and 30 µL/well 100% ice-cold methanol added and incubated at RT for 5 min to fix cells. Methanol was aspirated and cells washed with PBS (3×). To block and permeabilise, cells were incubated with PBS containing 1% BSA and 0.1% Triton X 100 for 20 min, followed by PBS wash (3×). Cells were incubated with mouse anti human type I collagen monoclonal antibody (Sigma, Catalogue No C2456) diluted 1:1000 in PBS for 24 h at 4° C. Cells were washed with PBS containing 0.1% Tween-20 (3×) and incubated with secondary alexa fluor 488 goat-anti-mouse antibody (Invitrogen, Catalogue No A11001, 1 in 500 in PBS) and Hoechst 33342 (Sigma, Catalogue No H21492), 1 in 1000 in PBS) for 1 h at RT, prior to washing with PBS containing 0.1% Tween (×4).
Type I collagen immunoreactivity was detected using the INCell 2000 Analyzer (GE Healthcare, INcell 2000) set to excitation and emission wavelengths for DAPI and FITC with laser focus and exposure adjusted to appropriate levels. Images were imported and analysed using Columbus software (Perkin Elmer) and computational algorithms to quantify “total collagen area” and “cell count”.
Data analysis was performed by determining 0/inhibition values for test compounds relative to the minimum (media only) and maximum responses (TGF-βstimulation) with non-linear regression analysis to determine IC50 values for test compounds.

[2] = target: T1, mTOR (Homo sapiens, UniProt P42345); assay: mTOR kinobeads competition-binding assay; conditions: HuT-78 cell lysate, bead-immobilized capturing ligand, 2 h at 4° C., mean of multiple experiments; read-out: mean pIC50, mTOR kinobeads assay (converted)
T1 construct: capturing of endogenously expressed target proteins from cell extracts by a bead-immobilized capturing ligand; endogenous in cells; host or cells: HuT-78 cells (ECACC 88041901), cell lysate
Protocol: The affinity of test compounds for mTOR was determined in the mTOR kinobeads assay. This is a competition-binding assay based on the capturing of endogenously expressed target proteins from cell extracts by a bead-immobilized capturing ligand in the presence of the test compound.
HuT-78 cells (European Collection of Authenticated Cell Cultures, 88041901) were cultured according to vendor's instructions. Frozen cell pellets were homogenized in 3× pellet volumes lysis buffer (50 mM Tris-HCl, 0.4% (v/v) Igepal-CA630, 5% glycerol, 150 mM NaCl, 1.5 mM MgCl2, 25 mM NaF, 1 mM sodium vanadate, 1 mM DTT, pH 7.5, supplemented with EDTA-free protease inhibitor tablet (Roche)). The sample was dispersed using a Dounce homogenizer, kept rotating for 30 min at 4° C., and centrifuged for 10 min at 20000 gat 4° C. The supernatant was centrifuged again for 1 h at 145 000 g. The protein concentration was determined by Bradford assay (BioRad), aliquots were snap frozen in liquid nitrogen and stored at −80° C.
The capturing matrices were generated by derivatizing N-hydroxysuccinimide (NHS) activated Sepharose 4 beads (GE Healthcare) with the functionalized ligands Compound A and Compound C at a ligand density of 5 mM. Remaining NHS-groups were blocked with ethanolamine.
For the mTOR kinobeads assay the matrices were combined in a 1:1 ratio and equilibrated in DP buffer (50 mM Tris-HCl (pH 7.5), 0.4% (v/v) Igepal-CA630, 5% (v/v) glycerol, 150 mM NaCl, 1.5 mM MgCl2, 25 mM NaF, 1 mM Na3VO4, 1 mM dithiothreitol). All steps of the mTOR kinobeads assay were performed at 4° C. or on ice. The cell lysate was diluted with DP buffer to a final concentration of 5 mg/ml and a final detergent concentration of 0.4% (v/v) Igepal-CA630. For the assay 250 μg cell lysate and 2.5 μl capturing matrix per well (final assay volume: 75 μl) were incubated in the presence of test compounds in a 384-well filter plate (MultiScreenHTS HV Filter Plate, 0.45 μm, MZHVNOW50, Merck Millipore). Each plate contained 16 positive (100 μM Compound B) and 16 negative (2% v/v DMSO) control wells. Compounds were tested in a concentration-response applying 1:3 or 1:4 dilution steps for in total 11 data points. DMSO concentration was 2% (v/v). After 2 h incubation on an overhead shaker (Roto-Shake Genie, Scientific Industries Inc.) at 4° C. the non-bound fraction was removed by washing the beads with DP buffer. Proteins retained on the beads were eluted in SDS sample buffer (200 mM Tris (pH 7.4), 250 mM Trizma Base, 4% (w/v) SDS, 20% (v/v) glycerol, 0.01% (w/v) bromophenol blue, 50 mM dithiothreitol) into a collection plate (384 well polypropylene microplate, V-shape, Greiner, 781 280). Eluates were spotted on nitrocellulose membranes (400 nl per spot) using an automated pin-tool liquid transfer (Biomek FX, Beckman). After drying, the membranes were rehydrated in 20% (v/v) ethanol and blocked by incubation with Odyssey blocking buffer (LICOR, 927-40000) for 1 h at room temperature. Blocked membranes were incubated overnight at 25° C. with Odyssey blocking buffer supplemented with a specific anti-mTOR antibody (Cell Signaling, 2972; 1:500) and 0.4% TWEEN-20. Then the membranes were washed in PBST buffer and incubated for 60 minutes at room temperature with the detection antibody (IRDye™ labelled antibody from LI-COR) diluted in Odyssey blocking buffer (LICOR 927-40000) containing 0.2% TWEEN-20. Then the membranes were washed with PBST and finally rinsed twice with PBS buffer to remove residual Tween-20. The membranes were then scanned with the Odyssey® Infrared Imaging System (LI-COR Biosciences). Fluorescence signals were recorded and analyzed according to the instructions of the manufacturer. Concentration response curves were computed with the software Activity Base. All data were normalized to the mean of 16 high (negative control) and 16 low (positive control) control wells on each plate. […]

IC50 [2] [µM]	Compound	IC50 [1] [µM]
–	CC[C@H]1COCC(=O)N1c1cc(CS(=O)(=O)N(C)C)cc(-c2ccc3[nH]c(CNC)cc3n2)n1 [Example 7, (S)-1-(2-(3-ethyl-5-oxomorpholino)-6-(2-((methylamino)methyl)-1H-pyrrolo[3,2-b]pyridin-5-yl)pyridin-4-yl)-N,N-dimethylmethanesulfonamide]	0.02 to 3.16
≤ 0.00126	CC[C@H]1COCC(=O)N1c1cc(CS(=O)(=O)N(C)C)cc(-c2ccc3[nH]c(CO)cc3n2)n1 [Example 29, (S)-1-(2-(3-ethyl-5-oxomorpholino)-6-(2-(hydroxymethyl)-1H-pyrrolo[3,2-b]pyridin-5-yl)pyridin-4-yl)-N,Ndimethylmethanesulfonamide]	0.02 to 3.16
≤ 0.0002	CC[C@H]1COCC(=O)N1c1cc(CS(C)(=O)=O)nc(-c2ccc3[nH]c(CO)cc3n2)n1 [Example 5, (5S)-5-ethyl-4-{2-[2-(hydroxymethyl)-1H-pyrrolo[3,2-b]pyridin-5-yl]-6-(methanesulfonylmethyl)pyrimidin-4-yl}morpholin-3-one]	0.02 to 3.16
–	CC[C@H]1COCCN1c1cc(C2(S(C)(=O)=O)CCN(C)CC2)cc(-c2ccc3[nH]c(CO)cc3n2)n1 [Example 20, (S)-(5-(6-(3-ethylmorpholino)-4-(1-methyl-4-(methylsulfonyl)piperidin-4-yl)pyridin-2-yl)-1H-pyrrolo[3,2-b]pyridin-2-yl)methanol]	0.02 to 3.16
≤ 0.000316	CC[C@H]1COCCN1c1cc(CS(C)(=O)=O)nc(-c2ccc3[nH]c(C)cc3n2)n1 [Example 12, (3S)-3-ethyl-4-[6-(methanesulfonylmethyl)-2-{2-methyl-1H-pyrrolo[3,2-b]pyridin-5-yl}pyrimidin-4-yl]morpholine]	0.02 to 3.16
–	CC[C@H]1COCCN1c1cc(C2(S(C)(=O)=O)CCN(C)CC2)cc(-c2ccc3[nH]c(C)cc3n2)n1 [Example 19, (S)-3-ethyl-4-(6-(2-methyl-1H-pyrrolo[3,2-b]pyridin-5-yl)-4-(1-methyl-4-(methylsulfonyl)piperidin-4-yl)pyridin-2-yl)morpholine]	0.02 to 3.16
–	CC[C@H]1COCCN1c1cc(C2(S(C)(=O)=O)CCNCC2)nc(-c2ccc3[nH]c(C)cc3n2)n1 [Example 17, (3S)-3-ethyl-4-[6-(4-methanesulfonylpiperidin-4-yl)-2-{2-methyl-1H-pyrrolo[3,2-b]pyridin-5-yl}pyrimidin-4-yl]morpholine]	0.02 to 3.16
≤ 0.0002	CC[C@H]1COCCN1c1cc(CS(=O)(=O)NC)nc(-c2ccc3[nH]c(C)cc3n2)n1 [Example 11, 1-{6-[(3S)-3-ethylmorpholin-4-yl]-2-{2-methyl-1H-pyrrolo[3,2-b]pyridin-5-yl}pyrimidin-4-yl}-N-methylmethanesulfonamide]	0.02
–	CC[C@H]1COCC(=O)N1c1cc(CS(C)(=O)=O)cc(-c2ccc3[nH]c(CNC)cc3n2)n1 [Example 28, (S)-5-ethyl-4-(6-(2-((methylamino)methyl)-1H-pyrrolo[3,2-b]pyridin-5-yl)-4-((methylsulfonyl)methyl)pyridin-2-yl)morpholin-3-one]	0.02 to 3.16
